Data set [1] in a line: Effect of treatment on mice health (weight, serum biochemistry, necropsy, histopathology). In kind it is in vivo, BALB/c nude mice. The note with it: 3 mg/kg per day. Here is the method:
During the 15-day trial, the weight and food intake of mice were recorded daily.
At euthanasia, blood was collected after the animals had been fasted overnight. Blood samples were collected from both control and test groups via cardiac puncture under ketamine anesthesia. All blood samples were then subjected to clinical analysis of aspartate aminotransferase (AST), alanine aminotransferase (ALT), and creatinine (SCr).
Mice were examined for gross lesions. Tissues and organs of interest were retained. The liver, kidneys, and spleen of all mice were weighed soon after dissection and then preserved in 4% paraformaldehyde for histopathological examination (Turki et al. [2010]). Histopathological assessments were performed to evaluate viscera retained from both control and treated animals. Viscera of interest were trimmed, processed, embedded in paraffin, sectioned, and stained with H&E before their microscopic examination.

Data set [2] concerns HepG2 cells.
Description: (§1) The purified CFNSE-iturin A was dissolved in cell culture medium and incubated with HepG2 cells for 10 min, and then observed under a fluorescence microscope and photographed. The control group was cells incubated with CFNSE for the same time.
For data set [3], the system named is HepG2 cells. Put plainly: Capability to enter cells (CFNSE label, fluorescence microscopy). The note with it: dissolved in cell culture medium, incubated with HepG2 for 10 min, fluorescence microscope.
Description: as §1

Where two headings read alike, the source gives them in different places. Where a SMILES comes first, the peptide text is derived from it.

Turning to `CCCCCCCCCCCC1CC(=O)N[C@@H](CC(N)=O)C(=O)N[C@H](Cc2ccc(O)cc2)C(=O)N[C@H](CC(N)=O)C(=O)N[C@@H](CCC(N)=O)C(=O)N2CCC[C@H]2C(=O)N[C@H](CC(N)=O)C(=O)N[C@@H](CO)C(=O)N1` (stereo partly shown) [iturin A] (HELM PEPTIDE1{N.[dY].[dN].Q.P.[dN].S.[CCCCCCCCCCCC(CC(=O)[*:2])N[*:1]]}$PEPTIDE1,PEPTIDE1,1:R1-8:R2$$$V2.0), in data set [1] (15 days), the “kidney histopathology (H&E)” value is given as “no necrotic cells or cell swelling was found”; the “liver histopathology (H&E)” value was “no hepatocyte swelling, necrosis, inflammatory cell infiltration, or other phenomena were observed”; the “spleen histopathology (H&E)” value is “orderly arrangement of cells without necrosis”. In addition, in data set [1] (15 days, n = 6), the “body weight versus control group” value is “no significant difference”; the “weight and viscera indexes of liver, spleen and kidney versus control” value is “No significant differences”. Moreover, in data set [1] (end of administration, n = 6), the “serum ALT versus control” value is “increased significantly”, the “serum AST versus control” value is “increased significantly” and the “serum creatinine (SCr) versus control” value was “no significant difference”. Also, the “entry into HepG2 cells (cell fluorescence)” value with HepG2 cells [2] was “could enter HepG2 cells within very short time”.
On to “5(6)-Carboxy fluorescein N-succinimidyl ester [CFNSE]”, for which, in the data set on HepG2 cells [3], the “entry into HepG2 cells (cell fluorescence)” value is “could not enter the cells”.

Values taken from paper PMC8110684, “Effects of Bacillus subtilis iturin A on HepG2 cells in vitro and vivo” (AMB Express, 2021).
